Data as given in PMC12165799, “Antimicrobial peptide developed with machine learning sequence optimization targets drug resistant Staphylococcus aureus in mice” (The Journal of Clinical Investigation, 2025).
Where two headings read alike, the source gives them in different places.

Experiments:
S. aureus MW2 = assay: Minimal inhibitory concentration (MIC) assay, broth microdilution; format: cell-based, Staphylococcus aureus
Description: 300 Synthesis of peptides
302 Piscataway, NJ, USA).
305 Minimal inhibitory concentration (MIC) assay
We made serial dilutions of 10×
We determined the MIC using OD600
Accordingly, we added 150 mM NaCl,
319 established protocol (5).

[1] = system: MRSA (S. aureus MW2) biofilm; assay: Biofilm viability assay on solid support (MW2); format: cell-based, Staphylococcus aureus; details: for Bacterial load of 24 hour established biofilm on solid membrane: S. aureus MW2, 24 h in PBS
[2] = system: VRSA (S. aureus VRS1) biofilm; assay: Biofilm viability assay on solid support (VRS1); format: cell-based, Staphylococcus aureus; details: for Bacterial load of 24 hour established biofilm on solid membrane: S. aureus VRS1, 24 h in PBS
[3] = system: S. aureus MW2 24 h established biofilm; details: 24 h treatment
Description: 346 plated onto TSA plates, and incubated plates at 37°C overnight. The next day, we counted the
347 viable bacterial colonies.
We used TSB medium containing
356 bacteria with water as the positive control, while TSB media with sterile water served as the
357 negative control. After incubation, we carefully removed the TSB medium and washed the wells
358 with PBS (Gibco, MD, USA) to remove loosely attached planktonic cells. We quantified the
359 biomass by staining the biofilms with crystal violet following an established protocol and
360 quantitated the concentration of peptide that inhibits 50% of biofilm formation (MBIC50)(8). We
361 measured the live cell count of the biofilms using XTT dye [2,3-bis(2-methyloxy-4-nitro-5-
362 sulfophenyl)-2H-tertazolium-5-carboxanilide] (ATCC, VA, USA). We calculated the percentage
363 of biofilm growth by normalizing to biofilm growth in wells containing bacteria without peptide
366 Disruption of S. aureus MW2 established biofilms
367 We evaluated the ability of the citropin 1.1-derived peptides to disrupt established biofilms
368 following an established protocol with modifications (5). We prepared exponential cultures of S.
369 aureus MW2 (adjusted to 1 × 10^6 CFU/ml) in TSB medium (supplemented with 0.2% glucose)
370 from overnight grown cultures. We added 100 µl of bacterial culture to flat-bottomed 96-well
371 polystyrene microtiter plates (Cat no. 3595, Corning, NY, USA). We then incubated the plates at
372 37°C for 24 hours in static conditions to allow biofilm formation. After incubation, we carefully
373 pipetted out the TSB medium and washed the wells with PBS (Gibco, MD, USA) to remove
374 loosely attached planktonic cells. We treated the established biofilms in each well with 10 µl of
375 serially diluted 10× peptide solution, followed by the addition of 90 μl TSB medium
376 (supplemented with 0.2% glucose). We incubated the plates for another 24 h at 37°C before
377 processing biomass and live-cell contents. We calculated the concentration of peptide that disrupts
378 50% of established biofilms (MBEC50).

S. aureus MW2 membrane = assay: Propidium iodide-based membrane permeability; format: cell-based, Staphylococcus aureus; details: S. aureus MW2, 60 minutes
Description: 484 min at room temperature in the dark based on a previously established protocol (8). We added 90
485 µl of the dye/bacteria mixture to 10 μl of serially diluted 10× peptide concentration in black, 96-
486 well plates (Cat. no. 3904, Corning, NY, USA) and incubated the plates for 1 hour at room
487 temperature. We measured the fluorescence with excitation and emission wavelengths of 485 nm
488 and 525 nm, respectively in endpoint assay mode using a SpectraMax i3x (Molecular Devices,
489 CA, USA) fluorescence reader.
490 Propidium iodide-based membrane permeability
491 We used a propidium iodide (Thermo Fisher Scientific, MA, USA) fluorescence-based
492 bacterial permeation assay to establish membrane-oriented interactions with the designed peptides
493 based on a previously established protocol (8). We prepared exponential phase S. aureus MW2
494 bacteria and diluted to OD600 = 0.4 in PBS. We added PI dye (final concentration = 2 µM) to the
495 bacteria in 1:10 serial dilutions in black, 96-well plates (Cat. no. 3904, Corning, NY, USA) and
496 incubated the plates for 1 hour at room temperature. We then measured the fluorescence with an
497 excitation wavelength of 584 nm and an emission wavelength of 620 nm in endpoint assay mode
498 using a SpectraMax i3x (Molecular Devices, CA, USA) fluorescence reader.
501 To determine the ATP leakage potential of the peptides, we employed a luciferase-based
502 assay(18). In brief, we washed exponential phase of S. aureus MW2 bacteria three times with PBS
503 (pH 7.4) and adjusted the washed cells to OD600 = 0.4 in PBS. Following treatment of the bacteria
504 with 32 µg/ml of CIT-8 peptide at 37°C for 30 min, we centrifuged the cells at 14,000× g for 5
505 min. We transferred 50 µl of each supernatant fraction to black, clear-bottom, 96-well plates

[4] = 40 μg/mL, 24 h established biofilm

## H-GLFKVIKKLLKVI-NH2 [CIT-8]
S. aureus MW2; S. aureus MW2, TSB
  MIC, Medium only: 4 µg/mL
S. aureus MW2; S. aureus MW2, TSB + 8 μM ZnSO4
  MIC + ZnSO4 (8 μM): 4 µg/mL
S. aureus MW2; S. aureus MW2, TSB + 1 mM MgSO4
  MIC + MgSO4 (1 mM): 4 µg/mL
S. aureus MW2; S. aureus MW2, TSB + 2.5 mM CaCl2
  MIC + CaCl2 (2.5 mM): 4 µg/mL
S. aureus MW2; S. aureus MW2, TSB + 150 mM NaCl
  MIC + NaCl (150 mM): 4 µg/mL
S. aureus MW2; S. aureus MW2, TSB + 5% human serum
  MIC + human serum (5%): 8 µg/mL
S. aureus MW2; S. aureus MW2, TSB + 10% human serum
  MIC + human serum (10%): 8 µg/mL
S. aureus MW2; S. aureus MW2, 5%–10% human serum
  Increase of MIC in human serum: 2 fold
S. aureus MW2; S. aureus MW2, broth microdilution, TSB, 1 × 10^6 CFU/ml, 37°C 18 h, OD600, duplicate
  MIC SA: 4 µg/mL
[1]; 40 μg/mL (abstract)
  Reduction of viable biofilm cells of MRSA in established biofilms: 3 log10
[1]; [4]
  Reduction of MRSA biofilm burden on solid membrane: 2.2 logs
[1]; 4 μg/ml, replicate 1
  Bacterial load of 24 hour established biofilm on solid membrane: 2200000
[1]; 4 μg/ml, replicate 2
  Bacterial load of 24 hour established biofilm on solid membrane: 2000000
[1]; 4 μg/ml, replicate 3
  Bacterial load of 24 hour established biofilm on solid membrane: 3600000
[1]; 4 μg/ml, replicate 4
  Bacterial load of 24 hour established biofilm on solid membrane: 14000000
[1]; 4 μg/ml, replicate 5
  Bacterial load of 24 hour established biofilm on solid membrane: 8000000
[1]; 4 μg/ml, replicate 6
  Bacterial load of 24 hour established biofilm on solid membrane: 3800000
[1]; 40 μg/ml, replicate 1
  Bacterial load of 24 hour established biofilm on solid membrane: 200000
[1]; 40 μg/ml, replicate 2
  Bacterial load of 24 hour established biofilm on solid membrane: 400000
[1]; 40 μg/ml, replicate 3
  Bacterial load of 24 hour established biofilm on solid membrane: 800000
[1]; 40 μg/ml, replicate 4
  Bacterial load of 24 hour established biofilm on solid membrane: 200000
[1]; 40 μg/ml, replicate 5
  Bacterial load of 24 hour established biofilm on solid membrane: 600000
[1]; 40 μg/ml, replicate 6
  Bacterial load of 24 hour established biofilm on solid membrane: 200000
[2]; 40 μg/mL (abstract)
  Reduction of viable biofilm cells of VRSA in established biofilms: 4 log10
[2]; [4]
  Reduction of VRSA biofilm burden on solid membrane: 3.8 logs
[2]; 4 μg/ml, replicate 1
  Bacterial load of 24 hour established biofilm on solid membrane: 4000000
[2]; 4 μg/ml, replicate 2
  Bacterial load of 24 hour established biofilm on solid membrane: 80000000
[2]; 4 μg/ml, replicate 3
  Bacterial load of 24 hour established biofilm on solid membrane: 14000000
[2]; 4 μg/ml, replicate 4
  Bacterial load of 24 hour established biofilm on solid membrane: 40000000
[2]; 4 μg/ml, replicate 5
  Bacterial load of 24 hour established biofilm on solid membrane: 2000000
[2]; 4 μg/ml, replicate 6
  Bacterial load of 24 hour established biofilm on solid membrane: 20000000
[2]; 40 μg/ml, replicate 1
  Bacterial load of 24 hour established biofilm on solid membrane: 16000
[2]; 40 μg/ml, replicate 2
  Bacterial load of 24 hour established biofilm on solid membrane: 6000
[2]; 40 μg/ml, replicate 3
  Bacterial load of 24 hour established biofilm on solid membrane: 2400
[2]; 40 μg/ml, replicate 4
  Bacterial load of 24 hour established biofilm on solid membrane: 18000
[2]; 40 μg/ml, replicate 5
  Bacterial load of 24 hour established biofilm on solid membrane: 12000
[2]; 40 μg/ml, replicate 6
  Bacterial load of 24 hour established biofilm on solid membrane: 2200
[3]; 4 μg/ml, replicate 1
  Established biofilm, biomass (crystal violet), percentage of untreated: 131.685
  Established biofilm, live-cell viability (XTT), percentage of untreated: 82.5027
[3]; 4 μg/ml, replicate 2
  Established biofilm, biomass (crystal violet), percentage of untreated: 134.586
  Established biofilm, live-cell viability (XTT), percentage of untreated: 94.0114
[3]; 4 μg/ml, replicate 3
  Established biofilm, biomass (crystal violet), percentage of untreated: 61.6564
  Established biofilm, live-cell viability (XTT), percentage of untreated: 89.5709
[3]; 8 μg/ml, replicate 1
  Established biofilm, biomass (crystal violet), percentage of untreated: 62.9601
  Established biofilm, live-cell viability (XTT), percentage of untreated: 83.9897
[3]; 8 μg/ml, replicate 2
  Established biofilm, biomass (crystal violet), percentage of untreated: 123.287
  Established biofilm, live-cell viability (XTT), percentage of untreated: 89.9036
[3]; 8 μg/ml, replicate 3
  Established biofilm, biomass (crystal violet), percentage of untreated: 70.3988
  Established biofilm, live-cell viability (XTT), percentage of untreated: 92.7553
[3]; 16 μg/ml, replicate 1
  Established biofilm, biomass (crystal violet), percentage of untreated: 49.8211
  Established biofilm, live-cell viability (XTT), percentage of untreated: 6.002
[3]; 16 μg/ml, replicate 2
  Established biofilm, biomass (crystal violet), percentage of untreated: 67.6508
  Established biofilm, live-cell viability (XTT), percentage of untreated: 15.664
[3]; 16 μg/ml, replicate 3
  Established biofilm, biomass (crystal violet), percentage of untreated: 56.1605
  Established biofilm, live-cell viability (XTT), percentage of untreated: 21.3742
[3]; 32 μg/ml, replicate 1
  Established biofilm, biomass (crystal violet), percentage of untreated: 28.3231
  Established biofilm, live-cell viability (XTT), percentage of untreated: 9.9063
[3]; 32 μg/ml, replicate 2
  Established biofilm, biomass (crystal violet), percentage of untreated: 39.7878
  Established biofilm, live-cell viability (XTT), percentage of untreated: 2.777
[3]; 32 μg/ml, replicate 3
  Established biofilm, biomass (crystal violet), percentage of untreated: 32.068
  Established biofilm, live-cell viability (XTT), percentage of untreated: 4.02
[3]; XTT
  Concentration killing 50% of live cells in 24 h established biofilm: 12 µg/mL
[3]; crystal violet, 24 h established biofilm
  MBEC50 (50% of biomass disrupted): 24 µg/mL
S. aureus MW2 membrane
  Propidium iodide fluorescence (membrane permeation): increased fluorescence compared with untreated controls
